Test [1] deals with U-2 OS. Description: AUC of culture confluence over time (live-cell imaging) (AUC (confluence % x time)); higher = more confluent culture (less growth inhibition). As to the method:
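Live-cell Incucyte imaging of U-2 OS cells in F-12K medium. Compounds were tested mostly at 5, 10 and 20 uM, and cells were imaged every 4 h for up to 60 h. Value is the area under the curve of phase-contrast confluence over time.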

For test [2], the system named is U-2 OS. Description: relative cell count vs DMSO (cell painting) (fraction of DMSO control); higher = more cells remaining (less cytotoxic). Particulars: 24 h. How it is done:
(§1)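 Cell painting in U-2 OS cells (384-well, about 1,500 cells per well), compound exposure 24 h, usually six 2-fold concentrations from 20 to 0.625 uM (some compounds higher or lower). Relative cell count is the cell number per well relative to DMSO wells. Activity score is the Mahalanobis distance of the morphological profile from DMSO control wells. Mean of four technical replicate plates.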

Test [3] deals with U-2 OS. Description: cell painting activity score (Mahalanobis distance from DMSO wells); higher = stronger morphological phenotype. Particulars: 24 h. How it is done: as §1

As for `CC(C)(C)C(=O)OCOc1cccc2c1C(=O)C1C3C=CC(CC3)C1C2=O` (stereo not given), the “AUC of culture confluence over time” value in the test on U-2 OS [1] (5 µM) was determined as 37.6; with U-2 OS [1] (10 µM), 26.3; in the test on U-2 OS [1] (20 µM), 20. Further, the relative cell count in the test with U-2 OS [2] (0.625 µM) was 0.973; with U-2 OS [2] (1.25 µM) it was 0.963; in the test with U-2 OS [2] (2.5 µM) it was 0.986; in the test with U-2 OS [2] (5 µM) it was 0.929; with U-2 OS [2] (10 µM) it was 0.787; in the test on U-2 OS [2] (20 µM), 0.554. Besides, the “cell painting activity score” value with U-2 OS [3] (0.625 µM) stood at 5.7; in the test with U-2 OS [3] (1.25 µM), 6.22; in the test on U-2 OS [3] (2.5 µM), 7.75; with U-2 OS [3] (5 µM), 8.44; with U-2 OS [3] (10 µM), 12.8; in the test with U-2 OS [3] (20 µM), 13.5.

Regarding `CC[C@@H]1/C=C/C=C/C[C@H](C)[C@@H](O)[C@](C)(O)C(=O)[C@H](C)[C@@H](O)[C@H](C)C(=O)[C@H](C)[C@@H](O)[C@H](C)/C=C/C(=O)O[C@H]2[C@@H](C)[C@@H](CC1)O[C@@]1(CC[C@@H](C)[C@@H](C[C@H](C)O)O1)[C@@H]2C`, the figures for the “AUC of culture confluence over time” value in the test with U-2 OS [1] (5 µM), in the test on U-2 OS [1] (10 µM) and with U-2 OS [1] (20 µM) were 28.5, 29.6 and 17.4, respectively. For the same molecule, the relative cell count in the test on U-2 OS [2] (0.625 µM) was 0.797; with U-2 OS [2] (1.25 µM) it was 0.815; with U-2 OS [2] (2.5 µM) it was 0.83; in the test on U-2 OS [2] (5 µM), 0.833; with U-2 OS [2] (10 µM), 0.872; in the test with U-2 OS [2] (20 µM) it was 0.697. In addition, the “cell painting activity score” value in the test on U-2 OS [3] (0.625 µM) was determined as 14.7; in the test on U-2 OS [3] (1.25 µM) it was 14.7; in the test on U-2 OS [3] (2.5 µM) it was 14.5; in the test with U-2 OS [3] (5 µM), 13.4; with U-2 OS [3] (10 µM) it was 13.8; in the test on U-2 OS [3] (20 µM) it was 15.

As to `Nc1nccc2c1ncn2[C@@H]1C=C(CO)[C@@H](O)[C@H]1O`, the “AUC of culture confluence over time” value with U-2 OS [1] (5 µM) turned out to be 36.9; in the test on U-2 OS [1] (10 µM), 32.7; with U-2 OS [1] (20 µM), 34.3. The relative cell count in the test with U-2 OS [2] (0.625 µM) is 0.949; with U-2 OS [2] (1.25 µM) it was 0.964; in the test on U-2 OS [2] (2.5 µM) it was 0.944; in the test with U-2 OS [2] (5 µM) it was 0.938; with U-2 OS [2] (10 µM) it was 0.941; in the test on U-2 OS [2] (20 µM) it was 0.94. Moreover, the “cell painting activity score” value was 18.6 with U-2 OS [3] (0.625 µM); 18.8 in the test with U-2 OS [3] (1.25 µM); 26.9 with U-2 OS [3] (2.5 µM); 28 in the test with U-2 OS [3] (5 µM); 26.4 in the test with U-2 OS [3] (10 µM); 26.2 in the test on U-2 OS [3] (20 µM).

Consider `CN(N=O)C(=O)N[C@@H]1[C@@H](O)[C@H](O)[C@@H](CO)O[C@@H]1O`, for which the figures for the “AUC of culture confluence over time” value in the test on U-2 OS [1] (5 µM), with U-2 OS [1] (10 µM) and with U-2 OS [1] (20 µM) were 48.1, 46.7 and 48.1, respectively. Besides, the relative cell count in the test with U-2 OS [2] (0.625 µM) was determined as 1.04; in the test with U-2 OS [2] (1.25 µM), 0.929; with U-2 OS [2] (2.5 µM), 0.893; in the test on U-2 OS [2] (5 µM), 0.893; in the test with U-2 OS [2] (10 µM), 0.88; in the test with U-2 OS [2] (20 µM), 0.851. The “cell painting activity score” value amounted to 12.4 in the test with U-2 OS [3] (0.625 µM); 14.8 in the test with U-2 OS [3] (1.25 µM); 14.4 in the test with U-2 OS [3] (2.5 µM); 13.9 in the test with U-2 OS [3] (5 µM); 10.4 in the test on U-2 OS [3] (10 µM); 10.8 in the test on U-2 OS [3] (20 µM).

In the case of `CC1(C)[C@@H](O[C@H]2O[C@H](C(=O)O)[C@@H](O)[C@H](O)[C@H]2O[C@@H]2O[C@H](C(=O)O)[C@@H](O)[C@H](O)[C@H]2O)CC[C@]2(C)[C@H]3C(=O)C=C4[C@@H]5C[C@@](C)(C(=O)O)CC[C@]5(C)CC[C@@]4(C)[C@]3(C)CC[C@@H]12.N`, the “AUC of culture confluence over time” value in the test on U-2 OS [1] (5 µM) worked out at 50.8; in the test with U-2 OS [1] (10 µM), 48.2; in the test with U-2 OS [1] (20 µM), 51. The relative cell count in the test with U-2 OS [2] (0.625 µM) came out at 1; in the test with U-2 OS [2] (1.25 µM), 0.993; in the test on U-2 OS [2] (2.5 µM) it was 0.972; with U-2 OS [2] (5 µM) it was 0.982; in the test with U-2 OS [2] (10 µM), 1; with U-2 OS [2] (20 µM), 1.03. For the same molecule, the “cell painting activity score” value with U-2 OS [3] (0.625 µM) was 4.09; in the test on U-2 OS [3] (1.25 µM) it was 5.25; with U-2 OS [3] (2.5 µM), 5.85; in the test on U-2 OS [3] (5 µM), 3.67; in the test on U-2 OS [3] (10 µM), 3.06; in the test with U-2 OS [3] (20 µM), 3.66.

For the molecule `CC(=O)N[C@@H](CCCCNC(=O)CSCCNC(=O)CCNC(=O)[C@H](O)C(C)(C)COP(=O)(O)OP(=O)(O)OC[C@H]1O[C@@H](n2cnc3c(N)ncnc32)[C@H](O)[C@@H]1OP(=O)(O)O)C(N)=O.O=C(O)C(F)(F)F`, the “AUC of culture confluence over time” value with U-2 OS [1] (5 µM) came to 44.2; with U-2 OS [1] (10 µM) it was 44.8; in the test on U-2 OS [1] (20 µM) it was 42.4. Besides, the relative cell count in the test with U-2 OS [2] (0.625 µM) stood at 0.896; with U-2 OS [2] (1.25 µM), 0.879; in the test with U-2 OS [2] (2.5 µM) it was 0.923; with U-2 OS [2] (5 µM), 0.883; in the test with U-2 OS [2] (10 µM), 0.875; in the test on U-2 OS [2] (20 µM), 0.903. Moreover, the “cell painting activity score” value in the test with U-2 OS [3] (0.625 µM) stood at 3.32; in the test with U-2 OS [3] (1.25 µM), 5.02; with U-2 OS [3] (2.5 µM) it was 3.77; in the test with U-2 OS [3] (5 µM), 3.73; in the test with U-2 OS [3] (10 µM) it was 4.57; in the test on U-2 OS [3] (20 µM) it was 4.45.

Take `COc1ccc2c(c[n+](C)c3c4cc5c(cc4ccc23)OCO5)c1OC`: the entries for the “AUC of culture confluence over time” value in the test with U-2 OS [1] (5 µM), in the test on U-2 OS [1] (10 µM) and in the test with U-2 OS [1] (20 µM) were 46.8, 41 and 11.4, respectively. In addition, the relative cell count in the test with U-2 OS [2] (0.625 µM) was determined as 0.994; in the test with U-2 OS [2] (1.25 µM) it was 1.03; in the test with U-2 OS [2] (2.5 µM), 1.01; with U-2 OS [2] (5 µM), 0.982; in the test on U-2 OS [2] (10 µM), 0.695; in the test with U-2 OS [2] (20 µM), 0.0282. The “cell painting activity score” value in the test with U-2 OS [3] (0.625 µM) came to 5.1; with U-2 OS [3] (1.25 µM), 3.72; in the test on U-2 OS [3] (2.5 µM), 14.6; in the test on U-2 OS [3] (5 µM), 14.5; with U-2 OS [3] (10 µM), 13.8; with U-2 OS [3] (20 µM), 16.2.

These data come from the supplement of paper PMC10011410.
